Target: T1, human wild-type (WT)-SLC26A3 (Homo sapiens, UniProt P40879)
T1 construct: expressed in transfected cells
T1 sequence (P40879 1-764): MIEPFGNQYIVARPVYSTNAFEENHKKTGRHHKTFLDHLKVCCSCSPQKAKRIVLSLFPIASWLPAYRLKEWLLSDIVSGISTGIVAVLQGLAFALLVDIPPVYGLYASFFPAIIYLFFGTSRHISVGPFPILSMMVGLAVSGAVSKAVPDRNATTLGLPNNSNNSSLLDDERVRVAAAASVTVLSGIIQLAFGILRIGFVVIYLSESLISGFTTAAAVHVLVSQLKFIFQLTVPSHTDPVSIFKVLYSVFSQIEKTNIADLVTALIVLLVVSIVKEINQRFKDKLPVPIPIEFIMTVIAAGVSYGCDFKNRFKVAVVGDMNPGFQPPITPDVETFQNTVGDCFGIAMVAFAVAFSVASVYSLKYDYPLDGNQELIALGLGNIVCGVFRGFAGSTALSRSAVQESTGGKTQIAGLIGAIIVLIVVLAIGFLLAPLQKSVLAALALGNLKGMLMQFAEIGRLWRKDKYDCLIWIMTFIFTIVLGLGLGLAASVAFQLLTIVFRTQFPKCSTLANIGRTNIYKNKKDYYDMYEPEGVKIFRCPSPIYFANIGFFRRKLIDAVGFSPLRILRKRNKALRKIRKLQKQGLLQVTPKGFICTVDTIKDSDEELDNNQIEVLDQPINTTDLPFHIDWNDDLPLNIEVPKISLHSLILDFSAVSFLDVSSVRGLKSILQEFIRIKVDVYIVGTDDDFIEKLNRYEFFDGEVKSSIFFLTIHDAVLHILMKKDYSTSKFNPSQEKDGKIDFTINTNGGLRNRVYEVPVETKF
Experiment: SLC26A3 Cl−/I− exchange activity, YFP fluorescence in LN-215 cells
Type: cell-based
Settings: for IC50: LN-215-YFP cells, FIG. 2, read-out: IC50 of Cl−/I− anion exchange by SLC26A3
Protocol: LN-215 cells were cultured in DMEM medium containing 10% fetal bovine serum (FBS), 100 units/ml of penicillin and 100 μg/ml streptomycin. LN-215 cells were stably transfected with pcDNA3.1 encoding the halide sensor YFP-H148Q/I152L/F46L and human wild-type (WT)-SLC26A3.
LN-215 cells expressing human WT SLC26A3 and YFP-F46L/H148Q/I152L were plated in 96-well microplates at a density of 2×10^4 cells per well, and cultured for 48 hours. Each well of the cell cultured 96-well plate was washed 2 times with 200 μL of PBS, and filled with 50 μL of HEPES buffered solution (140 mM NaCl, 5 mM KCl, 1 mM MgCl2, 1 mM CaCl2), 10 mM glucose and 10 mM HEPES (pH 7.4)). Test compounds (1 μL) were added to a final concentration of 100 μM. After culturing at 37° C. for 10 minutes, the 96-well plate was located on the FLUOstar Omega Microplate Reader (BMG Labtech, Ortenberg, Germany) for a fluorescence assay. Fluorescence was recorded continuously (400 ms per point) for 1 second (baseline), whereby each well was assayed individually for SLC26A3-mediated I-influx. Then, 50 μL of NaI-substituted HEPES buffered solution (replacing NaCl with NaI) was added using a liquid injector at 1 second, and YFP fluorescence was recorded for 5 seconds. The initial iodide influx rate was determined from the initial slope of fluorescence by nonlinear regression, after the injection of iodide.
In the case of SLC26A3 and SLC26A6, each transporter protein and halide sensitive YFP were expressed in LN-215 cells to measure the activity of the transporter protein.
Other details were carried out in the same manner as Example 5.

Cc1ccc2[nH]c(C(=O)O)c(CC(=O)N3CCN(c4c(C)cccc4Cl)CC3)c2c1 [YPI-A4948, 3-(2-(4-(2-Chloro-6-methylphenyl)piperazin-1-yl)-2-oxoethyl)-5-methyl-1H-indole-2-carboxylic acid]
Selectivity for pendrin than SLC26A3: about 18 times | IC50: 11.4 µM

Cc1ccc(C)c(N2CCN(C(=O)Cc3c(C(=O)O)[nH]c4ccc(Cl)cc34)CC2)c1 [YPI-H05, 5-chloro-3-(2-(4-(2,5-dimethylphenyl)piperazin-1-yl-)-2-oxoethyl)-1H-indole-2-carboxylic acid]
IC50: 3.8 µM

— US20240287042A1, “NOVEL COMPOUND HAVING INHIBITORY ACTIVITY AGAINST PENDRIN, AND PHARMACEUTICAL USES THEREOF” (UIF (University Industry Foundation), Yonsei University, priority 2021, published 2024)
